Assay results: patent publication US20120003339A1, “COMPOSITIONS AND METHODS FOR CONTROLLING BLOOD GLUCOSE LEVELS” (priority 2010, published 2012)

Key:
Assay type in all cases: in vivo, human
[1] = Example II: morning (fasting) and two-hour after eating blood glucose readings, A1c and side effects in a subject with type 2 diabetes; conditions: 500 mg once a day
Description: A subject had been diagnosed with type 2 diabetes. Their fasting glucose reading was 11.6 mmol/L and A1c was 8.9%. Due to arthritis in their knee, exercise was not an option. […] They were prescribed 500 mg of Ratio-Metformin once a day. […] According to the endocrinologist, the subject's morning readings (fasting blood glucose levels) were in the range from 8.1 to 10.8 mmol/L, and their two-hour after eating readings were 10 to 13.8 mmol/L.
Due to the adverse side effects of Metformin, the subject decided to stop taking the prescribed daily Metformin and replace it with the composition and method of the present invention. […]
The first cycle was about three months in length. […] Within a week that the subject was treated with the method of the invention, their morning readings were in the 4 to 6.5 mmol/L range and their two hours after eating range were well below 9 mmol/L. It should be noted that, for three weeks during this period, the patient was on vacation in France, enjoying fine French food and wine. A month after finishing the first cycle, the subject took a second fasting sugar test and a A1c test, the readings were 6.6 mmol/L and 6%, respectively.
The subject was treated with three cycles of the composition and method of the present invention. […] Their morning readings were in the range of 4.3 to 6.5 mmol/L, and their two hour after eating readings were in the range of 6 to 8.5 mmol/L. […]

[2] = Example III: blood glucose levels in a morbidly obese subject with type 2 diabetes; conditions: person, 380 lb, on traditional medication
Description: A subject weighed 380 lb was diagnosed with type 2 diabetes and was considered morbidly obese. The subject was prescribed Metformin. With traditional medication their blood glucose levels were at about 19 mmol/L, well above the normal range. Although the subject was considered for gastric bypass surgery, their medical doctors would not operate because their blood glucose could not be controlled.
The subject started taking 25 mg each of Gudmar, Kalijiri, Kariyatu, and Neempan tablets three times a day. Two weeks after the subject started the taking the herbal composition of the invention, the subject's blood glucose levels had dropped to 5.5 mmol/L, within the normal range. As a result, the subject was able to proceed with the surgery.

[3] = Example I: blood glucose levels and side effects in a subject with type 2 diabetes; conditions: person, blood glucose 17 to 19 mmol/L at diagnosis, first prescribed drug

SMILES	side effect (in words) [1]	blood glucose levels (effect in words) ([1]; fasting glucose 11.6 mmol/L and A1c 8.9% at diagnosis)	blood glucose levels [2]	blood glucose levels (effect in words) [3]
CN(C)C(=N)N=C(N)N [Metformin]	left them feeling confused, “in a fog.”	did reduce their blood glucose levels	about 19 mmol/L	
CN(CCOc1ccc(CC2SC(=O)NC2=O)cc1)c1ccccn1 (stereo not shown) [Avandia, rosiglitazone]				did not reduce their blood glucose levels to the normal range
